In patent US20260078130A1, “NAMPT MODULATORS, PREPARATIONS, AND USES THEREOF” (SIRONAX LTD., priority 2022, published 2026):
pEC50: −log10 of the molar value. Where two headings read alike, the source gives them in different places.

How the values were obtained:
[1] = test system: endogenous NAMPT in U2OS cells; test: Cellular NAD+ modulation assay (NAD/NADH-Glo, U2OS cells); format: cell-based; details: Homo sapiens; for maximal fold induction: read-out: Cellular Emax
Summary of the method: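 Endogenous NAMPT stimulation in U2OS cells treated with compound dilution series for 24 h at 37 °C. Cells lysed with DTAB base, acid-treated 15 min at 60 °C, neutralized, NAD+ read by NAD/NADH-Glo luminescence after 40 min at room temperature. EC50 and Emax (fold over DMSO) derived.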

[2] = target: T1, human enzyme NAMPT (full length) (Homo sapiens, UniProt P43490); test: NMN fluorescence biochemical assay (stimulation of NMN synthesis by NAMPT); details: for pEC50: concentration giving half-maximal activation, read-out: Enzymatic EC50; for Enzymatic Emax: fold change of maximal activation compared to DMSO
T1 construct: human enzyme NAMPT (full length)
T1 sequence (P43490 whole entry): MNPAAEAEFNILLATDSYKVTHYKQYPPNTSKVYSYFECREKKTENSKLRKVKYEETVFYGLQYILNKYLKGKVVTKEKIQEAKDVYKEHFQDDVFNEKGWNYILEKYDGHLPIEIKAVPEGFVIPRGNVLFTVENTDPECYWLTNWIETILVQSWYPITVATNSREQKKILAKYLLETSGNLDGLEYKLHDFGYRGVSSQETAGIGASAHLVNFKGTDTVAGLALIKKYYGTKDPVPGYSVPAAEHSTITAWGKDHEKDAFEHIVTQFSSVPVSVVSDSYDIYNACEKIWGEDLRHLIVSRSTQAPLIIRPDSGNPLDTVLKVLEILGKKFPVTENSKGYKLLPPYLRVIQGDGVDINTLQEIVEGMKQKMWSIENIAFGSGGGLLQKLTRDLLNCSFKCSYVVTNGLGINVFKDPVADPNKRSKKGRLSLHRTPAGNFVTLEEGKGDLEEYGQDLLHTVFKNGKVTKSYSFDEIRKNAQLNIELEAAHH
Summary of the method: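 Full-length human NAMPT (100 nM) was preincubated 15 min at 37 °C with compound in 50 mM Tris-HCl pH 7.5, 10 mM MgCl2, 2 mM DTT, then reacted 1 h at 37 °C with 50 μM NAM, 100 μM PRPP, 4 mM ATP (stated solution concentrations). NMN was derivatised with acetophenone/KOH then formic acid and read at Ex/Em 382/445 nm; EC50 and Emax (fold over DMSO) reported.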

[3] = 24 hours incubation, cellular NAD+
[4] = NMN fluorescence assay, purified human NAMPT 100 nM
[5] = 24 hours incubation with compound
[6] = NMN synthesis by purified human NAMPT (100 nM)

pEC50 [1, 3]	pEC50 [2, 4]	Enzymatic Emax [2]	pEC50 [1, 5]	pEC50 [2, 6]	SMILES	maximal fold induction [1, 3]	maximal fold induction [1, 5]
5.30 to 6.30	5.30 to 6.30	B (3≥B>2)			Cc1ccc(=O)n(C)c1CC1c2ccccc2C(=O)N1CC1CC2(CNC(=O)O2)C1 (centres unmarked) [Compound 493, 2-((1-((1,3-dimethyl-6-oxo-1,6-dihydropyridin-2-yl)methyl)-3-oxoisoindolin-2-yl)methyl)-5-oxa-7-azaspiro[3.4]octan-6-one]	> 1.5	
> 6.30	> 6.30	B (3≥B>2)			Cn1ccc(Cl)c(CC2c3ccccc3C(=O)N2CC2CC3(CNC(=O)O3)C2)c1=O (centres unmarked) [Compound 480, 2-((1-((4-chloro-1-methyl-2-oxo-1,2-dihydropyridin-3-yl)methyl)-3-oxoisoindolin-2-yl)methyl)-5-oxa-7-azaspiro[3.4]octan-6-one]	> 1.5	
		B (3≥B>2)	5.30 to 6.30	5.30 to 6.30	N#Cc1ccccc1CC1c2ccccc2C(=O)N1Cc1ccc2[nH]nnc2c1 (centres unmarked) [Compound 189, 2-((2-((1H-benzo[d][1,2,3]triazol-5-yl)methyl)-3-oxoisoindolin-1-yl)methyl)benzonitrile]		> 1.5
5.30 to 6.30	≤ 5.30	B (3≥B>2)			COc1ccc(CN2C(=O)c3ccc(Cl)cc3C2Cc2c(C)ncnc2C#N)cn1 (centres unmarked) [Compound 639, 5-((6-chloro-2-((6-methoxypyridin-3-yl)methyl)-3-oxoisoindolin-1-yl)methyl)-6-methylpyrimidine-4-carbonitrile]	1.2 to 1.5	
		A (A>3)	5.30 to 6.30	≤ 5.30	Cc1ccccc1CC1c2ncccc2C(=O)N1Cc1ccc2[nH]c(=O)oc2c1 (centres unmarked) [Compound 151, 6-((7-(2-methylbenzyl)-5-oxo-5,7-dihydro-6H-pyrrolo[3,4-b]pyridin-6-yl)methyl)benzo[d]oxazol-2(3H)-one]		> 1.5
		B (3≥B>2)	5.30 to 6.30	5.30 to 6.30	Cc1ccccc1CC1c2cccnc2C(=O)N1Cc1ccc2[nH]c(=O)oc2c1 (centres unmarked) [Compound 160, 6-((5-(2-methylbenzyl)-7-oxo-5,7-dihydro-6H-pyrrolo[3,4-b]pyridin-6-yl)methyl)benzo[d]oxazol-2(3H)-one]		> 1.5
		A (A>3)	5.30 to 6.30	≤ 5.30	CC1c2cc(NC3CC3)ccc2C(=O)N1Cc1ccc2[nH]c(=O)oc2c1 (single isomer, unassigned) [Compound 242]		> 1.5
		A (A>3)	> 6.30	5.30 to 6.30	N#Cc1ccc(F)c(CC2c3ccccc3C(=O)N2Cc2ccc3[nH]c(=O)oc3c2)c1 (centres unmarked) [Compound 202, 4-fluoro-3-((3-oxo-2-((2-oxo-2,3-dihydrobenzo[d]oxazol-6-yl)methyl)isoindolin-1-yl)methyl)benzonitrile]		> 1.5
		B (3≥B>2)	5.30 to 6.30	5.30 to 6.30	O=C1c2ccccc2C(CC2CCCCC2)N1Cc1ccc2[nH]c(=O)oc2c1 (centres unmarked) [Compound 167, 6-((1-(cyclohexylmethyl)-3-oxoisoindolin-2-yl)methyl)benzo[d]oxazol-2(3H)-one]		1.2 to 1.5
		B (3≥B>2)	4.30 to 5.30	≤ 5.30	CC1c2cc(CN3CCC3)ccc2C(=O)N1Cc1ccc2[nH]c(=O)oc2c1 (single isomer, unassigned) [Compound 274]		1.2 to 1.5
> 6.30	5.30 to 6.30	A (A>3)			Cn1ncc(Cl)c1CC1c2ccccc2C(=O)N1Cc1cnc(O)o1 (centres unmarked) [Compound 605, 3-((4-chloro-1-methyl-1H-pyrazol-5-yl)methyl)-2-((2-hydroxyoxazol-5-yl)methyl)isoindolin-1-one]	> 1.5	
		A (A>3)	5.30 to 6.30	5.30 to 6.30	O=C1c2ccccc2CCN1Cc1ccc(O)cc1 [Compound 2, 2-(4-hydroxybenzyl)-3,4-dihydroisoquinolin-1(2H)-one]		> 1.5
> 6.30	5.30 to 6.30	B (3≥B>2)			Cn1ncc(Cl)c1CC1c2ccccc2C(=O)N1C[C@]1(F)C[C@@]2(CNC(=O)O2)C1 (some centres unmarked) [Compound 487, (2r,4r)-2-((1-((4-chloro-1-methyl-1H-pyrazol-5-yl)methyl)-3-oxoisoindolin-2-yl)methyl)-2-fluoro-5-oxa-7-azaspiro[3.4]octan-6-one]	> 1.5	
> 6.30	5.30 to 6.30	A (A>3)			[2H]C([2H])(c1c(Cl)cnn1C)C1c2ccccc2C(C)(C)N1CC1CC2(CNC(=O)O2)C1 (centres unmarked) [Compound 616, 2-((3-((4-chloro-1-methyl-1H-pyrazol-5-yl)methyl-d2)-1,1-dimethylisoindolin-2-yl)methyl)-5-oxa-7-azaspiro[3.4]octan-6-one]	1.2 to 1.5	
> 6.30	5.30 to 6.30	A (A>3)			Cn1ncc(Cl)c1CC1c2ccccc2C(=O)N1Cc1ccc2c(c1)nnn2C (centres unmarked) [Compound 557, 3-((4-chloro-1-methyl-1H-pyrazol-5-yl)methyl)-2-((1-methyl-1H-benzo[d][1,2,3]triazol-5-yl)methyl)isoindolin-1-one]	> 1.5	
> 6.30	5.30 to 6.30	B (3≥B>2)			Cn1ncc(Cl)c1CC1c2cc(Cl)ccc2C(=O)N1CC1CC2(CNC(=O)O2)C1 (centres unmarked) [Compound 474, 2-((5-chloro-3-((4-chloro-1-methyl-1H-pyrazol-5-yl)methyl)-1-oxoisoindolin-2-yl)methyl)-5-oxa-7-azaspiro[3.4]octan-6-one]	> 1.5	
> 6.30	5.30 to 6.30	A (A>3)			N#Cc1cncc(C#N)c1CC1c2ccccc2C(=O)N1CC1CC2(CNC(=O)O2)C1 (centres unmarked) [Compound 459, 4-((3-oxo-2-((6-oxo-5-oxa-7-azaspiro[3.4]octan-2-yl)methyl)isoindolin-1-yl)methyl)pyridine-3,5-dicarbonitrile]	> 1.5	
		A (A>3)	5.30 to 6.30	≤ 5.30	O=C1c2ccc(Br)cc2C(=O)N1Cc1ccc(O)cc1 [Compound 16, 5-bromo-2-(4-hydroxybenzyl)isoindoline-1,3-dione]		≤ 1.2
		A (A>3)	5.30 to 6.30	5.30 to 6.30	Cc1ccc(CC2c3ccccc3C(=O)N2Cc2ccc3[nH]c(=O)oc3c2)nc1 (centres unmarked) [Compound 161, 6-((1-((5-methylpyridin-2-yl)methyl)-3-oxoisoindolin-2-yl)methyl)benzo[d]oxazol-2(3H)-one]		> 1.5
5.30 to 6.30	5.30 to 6.30	B (3≥B>2)			Cn1nnc(Cl)c1CC1c2ccccc2C(=O)N1CC1CC2(CNC(=O)O2)C1 (centres unmarked) [Compound 489, 2-((1-((4-chloro-1-methyl-1H-1,2,3-triazol-5-yl)methyl)-3-oxoisoindolin-2-yl)methyl)-5-oxa-7-azaspiro[3.4]octan-6-one]	> 1.5	
> 6.30	5.30 to 6.30	B (3≥B>2)			Cn1ncc(Cl)c1CC1c2ccccc2C(=O)N1C[C@H]1C[C@@]2(CNC(=O)O2)C1 (some centres unmarked) [Compound 483, (2r,4r)-2-((1-((4-chloro-1-methyl-1H-pyrazol-5-yl)methyl)-3-oxoisoindolin-2-yl)methyl)-5-oxa-7-azaspiro[3.4]octan-6-one]	1.2 to 1.5	
		B (3≥B>2)	5.30 to 6.30	≤ 5.30	COC1CCN(Cc2ccc3c(c2)[C@H](C)N(Cc2ccc4[nH]c(=O)oc4c2)C3=O)C1 (single isomer, unassigned) [Compound 188]		> 1.5
5.30 to 6.30	> 6.30	B (3≥B>2)			Cn1ncc(Cl)c1CC1c2cc(CC3COC3)ccc2C(=O)N1Cc1ccc2[nH]nnc2c1 (centres unmarked) [Compound 394, 2-((1H-benzo[d][1,2,3]triazol-5-yl)methyl)-3-((4-chloro-1-methyl-1H-pyrazol-5-yl)methyl)-5-(oxetan-3-ylmethyl)isoindolin-1-one]	> 1.5	
5.30 to 6.30	≤ 5.30	B (3≥B>2)			COc1ncc(CN2C(=O)c3ccccc3C2Cc2c(Cl)cnn2C)s1 (centres unmarked) [Compound 591, 3-((4-chloro-1-methyl-1H-pyrazol-5-yl)methyl)-2-((2-methoxythiazol-5-yl)methyl)isoindolin-1-one]	1.2 to 1.5	
> 6.30	5.30 to 6.30	A (A>3)			[2H]C1([2H])NC(=O)OC12CC(CN1C(=O)c3ccccc3C1Cc1c(Cl)cnn1C)C2 (centres unmarked) [Compound 535, 2-((1-((4-chloro-1-methyl-1H-pyrazol-5-yl)methyl)-3-oxoisoindolin-2-yl)methyl)-5-oxa-7-azaspiro[3.4]octan-6-one-8,8-d2]	> 1.5	
		A (A>3)	5.30 to 6.30	≤ 5.30	Cc1cccc(CC2c3ccccc3C(=O)N2Cc2ccc3[nH]c(=O)oc3c2)n1 (centres unmarked) [Compound 158, 6-((1-((6-methylpyridin-2-yl)methyl)-3-oxoisoindolin-2-yl)methyl)benzo[d]oxazol-2(3H)-one]		> 1.5
